Reference: US10457637B2, “Benzenesulfonamide derivatives as inverse agonists of retinoid-related orphan receptor gamma (RORγ(T))” (GALDERMA RESEARCH & DEVELOPMENT, priority 2014, dated 2019)

What was measured:
[1] = biological target: ROR gamma ligand-binding domain (hRORg) (Homo sapiens (Human), UniProt P51449); experiment: GAL4-RORγ transactivation (luciferase reporter, HG5LN HeLa line); type: cell-based; conditions: 18 hours incubation
Description: GAL4-RORγ Transactivation
The RORγ transactivation model was developed from the line HG5LN, which is a HeLa line that stably expresses a luciferase reporter gene controlled by a pentamer of the GAL4 recognition domain of yeast and of a β-globin promoter. The HG5LN line was stably transfected by the DNA-binding domain (DBD) of GAL4 fused to the ROR gamma ligand-binding domain (LBD). Molecules that inhibit the ROR gamma constitutive activity reduce the luciferase expression, thus leading to a reduction in the emitted luminescence.
The cells are seeded in 384-well plates (5000 cells in 45 μL/well of culture medium containing 10% fetal calf serum) and incubated for 4 hours at 37° C., 5% CO2. 5 μL of the test molecules (compounds described in the tables described above) are then added to each well and the plates are incubated for 18 hours at a temperature of 37° C. under 5% of CO2. 20 μL of luciferase substrate (Promega) are added to each well and the luminescence emitted is read by a microplate reader.
The luminescence units (“RLU”) are normalized by positive controls (“POS” containing a saturated concentration of benzenesulfonamide, N-(2,2,2-trifluoroethyl)-N-[4-[2,2,2-trifluoro-1-hydroxy-1-(trifluoromethyl)ethyl]phenyl]) and negative controls (“NEG” containing DMSO): % inhibition=((RLU−NEG)*100)/(POS−NEG). The IC50 values are calculated from a 4-parameter logistic model using the XLFit software (IDBS).

[2] = tested on: IL-17A secretion by CD4+ cells; experiment: IL-17A secretion by CD4+ cells (HTRF); type: cell-based; conditions: 96 h; human CD4+ cells activated with anti-CD3 and anti-CD28, 4 days of incubation; read-out: IC50 hCD4/IL17
Description: This model allows measurement of the effect of inhibitors on IL-17A secretion by CD4+ cells. […] The amount of IL-17a secreted is measured by the TR-FRET (kit HTRF® Human Interleukin 17A (Cisbio, #64H17PEC)) technology.
The cells are rapidly thawed, resuspended in their culture medium (RPMI inactivated 10% FCS) supplemented with soluble anti-CD28 antibodies and seeded (100 000 cells/well) in 96-well plates precoated with anti-CD3 antibodies. The cells are then treated with the ranges of inhibitors to be tested (from 1000 nM to 0.05 nM, 0.1% DMSO). […] The IC50 values are calculated from a 4-parameter logistic model using the XLFit software (IDBS).

Sequence of ROR gamma ligand-binding domain (hRORg) (P51449 269-508): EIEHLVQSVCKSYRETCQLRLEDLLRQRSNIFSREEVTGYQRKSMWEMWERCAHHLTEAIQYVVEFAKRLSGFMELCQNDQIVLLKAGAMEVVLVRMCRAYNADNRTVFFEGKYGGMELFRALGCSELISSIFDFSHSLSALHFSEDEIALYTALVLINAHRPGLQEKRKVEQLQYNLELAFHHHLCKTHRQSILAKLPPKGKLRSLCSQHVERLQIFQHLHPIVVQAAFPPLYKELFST

SMILES | IC50 [1] [nM] | IC50 [2] [nM]
CCc1ccc(N(CC(C)C)S(=O)(=O)c2ccc(NCC3(OC)CCOCC3)c(S(C)(=N)=O)c2)cc1 (stereo not shown) [compound 125, N-(4-ethylphenyl)-N-isobutyl-4-(((4-methoxytetrahydro-2H-pyran-4-yl)methyl)amino)-3-(S-methylsulfonimidoyl)benzenesulfonamide] | 100 to 1000 | > 1000
CCc1ccc(N(CC(C)C)S(=O)(=O)c2ccc(NCC3(CC)CCOCC3)c(S(C)(=N)=O)c2)cc1 (stereo not shown) [compound 124, N-(4-ethylphenyl)-4-(((4-ethyltetrahydro-2H-pyran-4-yl)methyl)amino)-N-isobutyl-3-(S-methylsulfonimidoyl)benzenesulfonamide] | – | < 100
CCc1ccc(N(CC(C)C)S(=O)(=O)c2ccc(NCC3CSC3)c(S(C)(=N)=O)c2)cc1 (stereo not shown) [compound 99, N-(4-ethylphenyl)-N-isobutyl-3-(S-methylsulfonimidoyl)-4-((thietan-3-ylmethyl)amino)benzenesulfonamide] | < 100 | < 100
CCc1ccc(N(CC(C)C)S(=O)(=O)c2ccc(NCc3ccncc3)c(S(C)(=N)=O)c2)cc1 (stereo not shown) [compound 64, N-(4-ethylphenyl)-N-isobutyl-3-(S-methylsulfonimidoyl)-4-((pyridin-4-ylmethyl)amino)benzenesulfonamide] | < 100 | < 100
CCc1ccc(N(CC(C)C)S(=O)(=O)c2ccc(N3CCC4(COC4)C3)c(S(C)(=N)=O)c2)cc1 (stereo not shown) [compound 112, N-(4-ethylphenyl)-N-isobutyl-3-(S-methylsulfonimidoyl)-4-(2-oxa-6-azaspiro[3.4]octan-6-yl)benzenesulfonamide] | 100 to 1000 | < 100
CCc1ccc(N(CC(C)C)S(=O)(=O)c2ccc(N3CCOCC3)c(S(C)(=N)=O)c2)cc1 (stereo not shown) [compound 123, N-(4-ethylphenyl)-N-isobutyl-3-(S-methylsulfonimidoyl)-4-morpholinobenzenesulfonamide] | < 100 | < 100
Cc1ccc(N(CC(C)C)S(=O)(=O)c2ccc(OCC3CCOCC3)c(S(C)(=N)=O)c2)c(C)c1 (stereo not shown) [compound 142, N-(2,4-dimethylphenyl)-N-isobutyl-3-(S-methylsulfonimidoyl)-4-((tetrahydro-2H-pyran-4-yl)methoxy)benzenesulfonamide] | < 100 | < 100
CCc1ccc(N(CC(C)C)S(=O)(=O)c2ccc(N3CC[C@H](O)C3)c(S(C)(=N)=O)c2)cc1 (stereo partly drawn) [compound 129, N-(4-ethylphenyl)-4-((S)-3-hydroxypyrrolidin-1-yl)-N-isobutyl-3-(S-methylsulfonimidoyl)benzenesulfonamide] | > 1000 | > 1000
CCc1ccc(N(CC(C)C)S(=O)(=O)c2ccc(N3CCSCC3)c(S(C)(=N)=O)c2)cc1 (stereo not shown) [compound 87, N-(4-ethylphenyl)-N-isobutyl-3-(S-methylsulfonimidoyl)-4-thiomorpholinobenzenesulfonamide] | < 100 | < 100
CCc1ccc(N(CC(C)C)S(=O)(=O)c2ccc(N3CC[C@@H](O)C3)c(S(C)(=N)=O)c2)cc1 (stereo partly drawn) [compound 130, N-(4-ethylphenyl)-4-((R)-3-hydroxypyrrolidin-1-yl)-N-isobutyl-3-(S-methylsulfonimidoyl)benzenesulfonamide] | > 1000 | > 1000
CCc1ccc(N(CC(C)C)S(=O)(=O)c2ccc(N3CCOC[C@H]3C)c(S(C)(=N)=O)c2)cc1 (stereo partly drawn) [compound 103, N-(4-ethylphenyl)-N-isobutyl-4-((R)-3-methylmorpholino)-3-(S-methylsulfonimidoyl)benzenesulfonamide] | > 1000 | > 1000
CCc1ccc(N(CC(C)C)S(=O)(=O)c2ccc(NCc3ccncn3)c(S(C)(=N)=O)c2)cc1 (stereo not shown) [compound 133, N-(4-ethylphenyl)-N-isobutyl-3-(S-methylsulfonimidoyl)-4-((pyrimidin-4-ylmethyl)amino)benzenesulfonamide] | < 100 | < 100
CCc1ccc(N(CC(C)C)S(=O)(=O)c2ccc(OCC3CCOCC3)c(S(N)(=O)=O)c2)cc1 [compound 66, 4-(tetrahydropyran-4-ylmethoxy)benzene-1,3-disulfonic acid 3-amide 1-[(4-ethylphenyl)isobutylamide]] | – | < 100
CCc1ccc(N(CC(C)C)S(=O)(=O)c2ccc(N3CCC(O)CC3)c(S(C)(=N)=O)c2)cc1 (stereo not shown) [compound 128, N-(4-ethylphenyl)-4-(4-hydroxypiperidin-1-yl)-N-isobutyl-3-(S-methylsulfonimidoyl)benzenesulfonamide] | > 1000 | > 1000
CCc1ccc(N(CC(C)C)S(=O)(=O)c2ccc(NCC3CCOCC3)c(S(C)(=N)=O)c2)cc1 (stereo not shown) [compound 52, N-(4-ethylphenyl)-N-isobutyl-3-(S-methysulfonimidoyl)-4-[(tetrahydropyran-4-ylmethyl)amino]benzenesulfonamide] | – | < 100
CCc1ccc(N(CC(C)C)S(=O)(=O)c2ccc(OCC3(F)CCOCC3)c(S(C)(=N)=O)c2)cc1 (stereo not shown) [compound 30, N-(4-ethylphenyl)-4-((4-fluorotetrahydro-2H-pyran-4-yl)methoxy)-N-isobutyl-3-(S-methylsulfonimidoyl)benzenesulfonamide] | < 100 | < 100
COc1ccc(N(C(C)C)S(=O)(=O)c2ccc(OCC3CCOCC3)c(S(C)(=N)=O)c2)c(C)c1 (stereo not shown) [compound 143, N-isopropyl-N-(4-methoxy-2-methylphenyl)-3-(S-methylsulfonimidoyl)-4-((tetrahydro-2H-pyran-4-yl)methoxy)benzenesulfonamide] | 100 to 1000 | –
CCc1ccc(N(CC(C)C)S(=O)(=O)c2ccc(NC[C@H]3CNC(=O)O3)c(S(C)(=N)=O)c2)cc1 (stereo partly drawn) [compound 106, N-(4-ethylphenyl)-N-isobutyl-3-(S-methylsulfonimidoyl)-4-((((S)-2-oxooxazolidin-5-yl)methyl)amino)benzenesulfonamide] | > 1000 | –
CCc1ccc(N(CC(C)C)S(=O)(=O)c2ccc(NCC3(N4CCCC4)COC3)c(S(C)(=N)=O)c2)cc1 (stereo not shown) [compound 132, N-(4-ethylphenyl)-N-isobutyl-3-(S-methylsulfonimidoyl)-4-(((3-(pyrrolidin-1-yl)oxetan-3-yl)methyl)amino)benzenesulfonamide] | > 1000 | –
CCc1ccc(N(CC(C)C)S(=O)(=O)c2ccc(OCC3C4COCC43)c(S(C)(=N)=O)c2)cc1 (stereo not shown) [compound 31, 4-((3-oxabicyclo[3.1.0]hexan-6-yl)methoxy)-N-(4-ethylphenyl)-N-isobutyl-3-(S-methylsulfonimidoyl)benzenesulfonamide] | < 100 | –
CCc1ccc(N(CC(C)C)S(=O)(=O)c2ccc(OCC3CCOCC3)c(S(=N)(=O)CC)c2)cc1 (stereo not shown) [compound 18, N-(4-ethylphenyl)-N-isobutyl-3-ethanesulfoximino-4-(tetrahydropyran-4-ylmethoxy)benzenesulfonamide] | – | < 100
CCc1ccc(N(CC(C)C)S(=O)(=O)c2ccc(NCC3CCN(C(=O)OC)CC3)c(S(C)(=N)=O)c2)cc1 (stereo not shown) [compound 93, methyl 4-(((4-(N-(4-ethylphenyl)-N-isobutylsulfamoyl)-2-(S-methylsulfonimidoyl)phenyl)amino)methyl)piperidine-1-carboxylate] | > 1000 | –
CCc1ccc(N(CC(C)C)S(=O)(=O)c2ccc3c(c2)N(CC2CCOCC2)CCS3)cc1 [compound 6, 4-(tetrahydropyran-4-ylmethyl)-3,4-dihydro-2H-benzo[1,4]thiazine-6-sulfonic acid (4-ethylphenyl)isobutylamide] | > 1000 | –
CCc1ccc(N(CC(C)C)S(=O)(=O)c2ccc(NC[C@@H]3CNC(=O)O3)c(S(C)(=N)=O)c2)cc1 (stereo partly drawn) [compound 105, N-(4-ethylphenyl)-N-isobutyl-3-(S-methylsulfonimidoyl)-4-((((R)-2-oxooxazolidin-5-yl)methyl)amino)benzenesulfonamide] | > 1000 | –
CCc1ccc(N(CC(C)C)S(=O)(=O)c2ccc(NCC3CCN(C(=O)OC)C3)c(S(C)(=N)=O)c2)cc1 (stereo not shown) [compound 94, methyl 3-(((4-(N-(4-ethylphenyl)-N-isobutylsulfamoyl)-2-(S-methylsulfonimidoyl)phenyl)amino)methyl)pyrrolidine-1-carboxylate] | > 1000 | –
CCc1ccc(N(CC(C)C)S(=O)(=O)c2ccc(Oc3ccc(C#N)cc3)c(S(C)(=N)=O)c2)cc1 (stereo not shown) [compound 80, 4-(4-cyanophenoxy)-N-(4-ethylphenyl)-N-isobutyl-3-(S-methylsulfonimidoyl)benzenesulfonamide] | > 1000 | –
CCc1ccc(N(CC(C)C)S(=O)(=O)c2ccc(S(=N)(=O)CC3CCOCC3)cc2)cc1 (stereo not shown) [compound 28, N-(4-ethylphenyl)-N-isobutyl-4-(tetrahydropyran-4-ylmethanesulfoximimyl)benzenesulfonamide] | > 1000 | –
